Laboratory results published in patent US6441134B1, “Isolated Candida albicans oligopeptide transporter gene” (The University of Tennessee Research Corporation, dated 2002).
Non-standard residues stand in square brackets, D forms with d. No end group written: not given here.

How the values were obtained:
Assay type in all cases: cell-based, Saccharomyces cerevisiae
S. cerevisiae PB1X-9B = assay: Sensitivity of untransformed S. cerevisiae PB1X-9B to ethionine and ethionine peptides
Method: (§1) S. cerevisiae PB1X-9B is sensitive to the toxic amino acid ethionine Eth) but is resistant to ethionine containing di-, tri-, tetra-, and pentapeptides. Disk sensitivity assays was utilized to determine if cells transformed with pOPT1 were sensitive to toxic peptides and whether this sensitivity was dependent upon nitrogen source.
Sensitivity to ethionine, a toxic methionine analog, and ethionine-containing peptides was determined by the method described by Island et al. (1987). Cells were grown overnight to exponential phase of growth in SC, washed, and resuspended at 5×10^6 cells /ml in sterile water. One ml of this cell suspension was added to 3 ml molten Noble agar (0.8% final concentration) and overlayed on 20 ml of the same medium used to prepare the inoculum. A disk (6 mm diameter, Difco) was placed on the plate and 0.38 μmoles of the compounds to be tested were applied to the disks. Zones of inhibition were measured after 24-48 hr incubation at 30 iC. Each test comprised at least three independent assays and the results represented in the Tables are means of the values obtained. Maximum variation between the zones of inhibition measured for each test were ^23 mm. A value of 7 mm for the diameter of zone of inhibition represents a minimal growth inhibition value as the disk diameter was 6 mm. […]

[1] = tested on: S. cerevisiae PB1X-9B(pOPT1); settings: ammonium sulfate as nitrogen source; 0.38 μmoles per 6 mm disk; 24-48 hr
Method: as §1
Sensitivity to ethionine, a toxic methionine analog, and ethionine-containing peptides was determined by the method described by Island et al. (1987). Cells were grown overnight to exponential phase of growth in SC, washed, and resuspended at 5×10^6 cells /ml in sterile water. One ml of this cell suspension was added to 3 ml molten Noble agar (0.8% final concentration) and overlayed on 20 ml of the same medium used to prepare the inoculum. A disk (6 mm diameter, Difco) was placed on the plate and 0.38 μmoles of the compounds to be tested were applied to the disks. Zones of inhibition were measured after 24-48 hr incubation at 30 iC. Each test comprised at least three independent assays and the results represented in the Tables are means of the values obtained. Maximum variation between the zones of inhibition measured for each test were ^23 mm. A value of 7 mm for the diameter of zone of inhibition represents a minimal growth inhibition value as the disk diameter was 6 mm. Photodocumentation of sensitivity assays was done with a Umax Scanner and processed through Adobe Photoshop.

[2] = tested on: S. cerevisiae PB1X-9B(pOPT1); assay: Peptide transport assay, accumulation of KLG-[3H]L, PB1X-9B(pOPT1)
Method: (§2) To determine if S. cerevisiae transformants harboring pOPT1 could accumulate a radiolabeled tetrapeptide, uptake assays were performed with the radiolabeled substrate KLG-[^3H]L SEQ ID NO:7 with cells grown to log phase in SC-Ura with either ammonium sulfate or 0.1% proline as a nitrogen source. […] This higher initial rate can be explained by overexpression due to high copy number or alternatively by the lack of requisite regulatory elements which may be absent in the heterologous host.
Uptake of KLG-[^3H]L SEQ ID NO:7 was determined using a protocol for uptake of dipeptides as described by Basrai et al. (1995) with a few modifications. S. cerevisiae cultures were grown overnight to exponential phase in SC-Ura medium. Cells were harvested by centrifugation, and resuspended in 2% glucose at a cell density of 2×10^8 cells/ml. Two hundred and fifty microliters of cell suspension were added to an equal volume of an uptake assay reaction mixture and incubated at 30iC. The final concentrations of the components in the uptake assay solution were: glucose (2%, w/v), 10 mM sodium citrate/potassium phosphate buffer (pH 5.0), and KLG-[^3H]L SEQ ID NO:7 (150 μM; 8.5 mCi/mmol). Competition experiments were done in the presence of either 1.5 mM L, KL, KLG, KLLG SEQ ID NO:6, or KLLLG SEQ ID NO:8. At various time points, 90 μl portions were removed and filtered through a membrane. The yeast cells retained on the filter were washed twice with ice-cold distilled water, once with room temperature distilled water, and the residual radioactivity was measured by liquid scintillation. There was no peptide adsorption to the cell surface or sticking to filters since at 0i C the counts were at background level. The uptake results, calculated on the basis of 50% counting efficiency (determined using L-[^3H]lysine as a standard, and the specific activity of the peptide), were expressed as nmol of peptide uptake per minute per mg cell dry weight.

[3] = tested on: S. cerevisiae PB1X-9B(pRS202); assay: Peptide transport assay, accumulation of KLG-[3H]L, PB1X-9B(pRS202); settings: cells grown in SC with ammonium sulfate; 150 μM substrate
Method: as §2
Uptake of KLG-[^3H]L SEQ ID NO:7 was determined using a protocol for uptake of dipeptides as described by Basrai et al. (1995) with a few modifications. S. cerevisiae cultures were grown overnight to exponential phase in SC-Ura medium. Cells were harvested by centrifugation, and resuspended in 2% glucose at a cell density of 2×10^8 cells/ml. […] The yeast cells retained on the filter were washed twice with ice-cold distilled water, once with room temperature distilled water, and the residual radioactivity was measured by liquid scintillation. […] The uptake results, calculated on the basis of 50% counting efficiency (determined using L-[^3H]lysine as a standard, and the specific activity of the peptide), were expressed as nmol of peptide uptake per minute per mg cell dry weight.

Row | Molecule | sensitivity / resistance of the strain (S. cerevisiae PB1X-9B) | zone of growth inhibition [1] [mm] | uptake rate of KLG-[3H]L, no competitor ([2]; SC-Ura with ammonium sulfate, 150 μM substrate, best fit of slope over 12 min) | initial rate of uptake compared to C. albicans SC5314 ([2]; both grown in SC with ammonium sulfate) | uptake rate of radiolabeled tetrapeptide ([2]; cells grown in SC with ammonium sulfate, 150 μM substrate) | initial uptake rate, PB1X-9B(pOPT1) relative to PB1X-9B(pRS202) ([2]; growth media with proline as nitrogen source) [times] | uptake of radiolabeled tetrapeptide [3]
1 | CCSCC[C@H](N)C(=O)O [ethionine, Ethionine] | sensitive | 33 |  |  |  |  | 
2 | Lys-Leu-Gly-[^3H]Leu (KLG[3H‑Leu]) [KLG-[^3H]L] |  |  | 0.24 nm/min/mg of dry weight | higher initial rate of uptake | significant uptake rate | 2.5 | no uptake
